According to patent US20060134225A1, “Phosphate binder with reduced pill burden” (priority 2004, published 2006):

Columns and labels:
adult beagle dogs = experiment: Dog study, urine phosphate excretion; type: in vivo; conditions: oral capsules, 2250 mg elemental lanthanum twice daily
Experimental: The doses were administered 30 minutes after provision of food to the animals. At least 14 days washout was allowed between the crossover arms. Plasma was obtained pre-dose and 1.5, 3, 6, 7.5, 9, 12, 24, 36, 48, 60, and 72 hours after dosing and analyzed for lanthanum using ICP-MS. Urine was collected by catheterization before and approximately 24 hours after dosing and creatinine and phosphorus concentrations measured.

[1] = tested on: adult Sprague-Dawley rats; experiment: In vivo study in 5/6 nephrectomized rats, urine phosphorus excretion; design: species or system rat; conditions: 314 mg elemental lanthanum/kg/day oral, 14 days, compared to untreated rats
Experimental: Groups of six adult Sprague-Dawley rats underwent ⅚th nephrectomy in two stages over a period of 2 weeks and were then allowed to recover for a further two weeks prior to being randomized for treatment. The groups received vehicle (0.5% w/v carboxymethyl cellulose), or lanthanum oxycarbonate suspended in vehicle, once daily for 14 days by oral […] (10 ml/kg/day). The dose delivered 314 mg elemental lanthanum/kg/day. Dosing was carried out immediately before the dark (feeding) cycle on each day. Urine samples (24 hours) were collected prior to surgery, prior to the commencement of treatment, and twice weekly during the treatment period. Volume and phosphorus concentration were measured.
Feeding—During the acclimatization and surgery period, the animals were given Teklad phosphate sufficient diet (0.5% Ca, 0.3% P; Teklad No. TD85343), ad libitum. At the beginning of the treatment period, animals were pair fed based upon the average food consumption of the vehicle-treated animals the previous week.
5/6 Nephrectomy—After one week of acclimatization, all animals were subjected to 5/6 nephrectomy surgery. The surgery was performed in two stages. First, the two lower branches of the left renal artery were ligated. One week later, a right nephrectomy was performed. […]

Row | Compound | urine phosphate excretion (marker of phosphorous binding) (adult beagle dogs) | phosphorus excretion in urine (marker of dietary phosphorus binding) [1]
1 | O=C([O-])[O-].[La+3].[La+3].[O-2].[O-2] [compound B, La2O2CO3] | reduction of urine phosphate excretion | –
2 | O=C([O-])[O-].[La+3].[OH-] [compound A, LaCO3OH] | reduction of urine phosphate excretion | –
3 | lanthanum oxycarbonate | – | decrease in phosphorus excretion
4 | O=C([O-])[O-].[La+3].[OH-] [lanthanum carbonate hydroxide] | – | decrease in phosphorus excretion
